# Laboratory results from patent US10687532B2, “Substituted oxadiazoles for combating phytopathogenic fungi” (BASF SE, priority 2015, dated 2020).
row,melting point [°C],SMILES
1,183,"O=C(Nc1ccc(-c2noc(C(F)(F)F)n2)cc1)C1CCC1 [Ex-2, N-[4-[5-(trifluoromethyl)-1,2,4-oxadiazol-3-yl]phenyl]cyclobutanecarboxamide]"
2,98,"CN(C(=O)C1CC1)c1ccc(-c2noc(C(F)(F)F)n2)cc1 [Ex-7, N-methyl-N-[4-[5-(trifluoromethyl)-1,2,4-oxadiazol-3-yl]phenyl]cyclopropanecarboxamide]"
